Measured values taken from the supplement of paper PMC11061612.

Columns and labels:
[1] = compound: CC(=O)Nc1cccc(-n2c(=O)n(C3CC3)c(=O)c3c(Nc4ccc(I)cc4F)n(C)c(=O)c(C)c32)c1 [Trametinib]; conditions: max 1 µM
How it was run: (§1)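 In 1536-well plates, cancer cell lines in 7.5 μl DMEM/F12 or RPMI with 10% FBS spent 24 hours at 37°C and 5% CO2 and were then dosed for 72 hours with final DMSO typically 0.2%. Viability was read by CellTiter-Glo 2.0 luminescence and scaled between blank-well and DMSO-well means. The single-agent IC50 was fitted from dose responses using a logistic curve in a non-linear mixed effects model, and that logistic curve had two parameters.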

[2] = compound: C[C@@H](c1ccc2nccn2c1)n1nnc2ncc(-c3cnn(C)c3)nc21 [Savolitinib]; conditions: max 1 µM
How it was run: as §1

[3] = compound: CCc1c2c(nc3ccc(O)cc13)-c1cc3c(c(=O)n1C2)COC(=O)[C@]3(O)CC [SN-38]; conditions: max 0.3 µM
How it was run: as §1

[4] = compound: COc1cccc2c1C(=O)c1c(O)c3c(c(O)c1C2=O)C[C@@](O)(C(=O)CO)C[C@@H]3O[C@H]1C[C@H](N)[C@H](O)[C@H](C)O1 [Doxorubicin]; conditions: max 1 µM
How it was run: as §1

[5] = compound: C[C@@H]1COCCN1C2=NC(=NC(=C2)C3(CC3)[S@](=N)(=O)C)C4=C5C=CNC5=NC=C4 [AZD6738]; conditions: max 10 µM
How it was run: as §1

[6] = compound: C[C@@H](Nc1cc(F)cc(F)c1)c1cc(C(=O)N(C)C)cc2c(=O)cc(N3CCOCC3)oc12 [AZD8186]; conditions: max 3 µM
How it was run: as §1

[7] = compound: COc1cccc(OCCCN)c1-c1cc(Nc2cnc(C#N)cn2)n[nH]1 [Prexasertib]; conditions: max 1 µM
How it was run: as §1

[8] = compound: CC1(C)CCC(CN2CCN(c3ccc(C(=O)NS(=O)(=O)c4ccc(NCC5CCOCC5)c([N+](=O)[O-])c4)c(Oc4cnc5[nH]ccc5c4)c3)CC2)=C(c2ccc(Cl)cc2)C1 [Venetoclax]; conditions: max 1 µM
How it was run: as §1

[9] = compound: C=CCn1c(=O)c2cnc(Nc3ccc(N4CCN(C)CC4)cc3)nc2n1-c1cccc(C(C)(C)O)n1 [AZD1775]; conditions: max 3 µM
How it was run: as §1

[10] = compound: CC1=CN2[C@@H](C1)C=NC3=CC(=C(C=C3C2=O)OC)OCCCCCOC4=C(C=C5C(=C4)N=C[C@@H]6CC(=CN6C5=O)C)OC [SG3199]; conditions: max 0.001 µM
How it was run: as §1

[11] = compound: Cc1c2c(nn1C)CSCc1cc(n(C)n1)CSc1cc(c3ccccc3c1)OCCCc1c(C(=O)O)n(C)c3c-2c(Cl)ccc13 [AZD5991]; conditions: max 1 µM
How it was run: as §1

[12] = compound: Cn1cnc2c(F)c(Nc3ccc(Br)cc3Cl)c(C(=O)NOCCO)cc21 [Selumetinib]; conditions: max 10 µM
How it was run: as §1

[13] = compound: CC(C)n1c(=O)n(C)c2cnc3cc(F)c(-c4ccc(OCCCN5CCCCC5)nc4)cc3c21 [AZD1390]; conditions: max 0.3 µM
How it was run: as §1

[14] = compound: COc1cc2ncnc(Nc3ccc(F)c(Cl)c3)c2cc1OCCCN1CCOCC1 [Gefitinib]; conditions: max 10 µM
How it was run: as §1

[15] = compound: Cc1nc(-c2cn3c(n2)-c2ccc(-c4cnn(C(C)(C)C(N)=O)c4)cc2OCC3)n(C(C)C)n1 [Taselisib]; conditions: max 10 µM
How it was run: as §1

[16] = compound: CS(=O)(=O)CCNCc1ccc(-c2ccc3ncnc(Nc4ccc(OCc5cccc(F)c5)c(Cl)c4)c3c2)o1 [Lapatinib]; conditions: max 10 µM
How it was run: as §1

[17] = compound: CCN(CCO)CCCOc1ccc2c(Nc3cc(CC(=O)Nc4cccc(F)c4)[nH]n3)ncnc2c1 [AZD2811]; conditions: max 1 µM
How it was run: as §1

[18] = compound: CC1=C(C(=CC=C1)Cl)NC(=O)C2=CN=C(S2)NC3=CC(=NC(=N3)C)N4CCN(CC4)CCO [Dasatinib]; conditions: max 2 µM
How it was run: as §1

[19] = compound: CN(CC[C@H](CSC1=CC=CC=C1)NC2=C(C=C(C=C2)S(=O)(=O)NC(=O)C3=CC=C(C=C3)N4CCC(CC4)[C@H](C5=CC=CC=C5C6=CC=C(C=C6)Cl)O)S(=O)(=O)C(F)(F)F)CCO [AZD4320]; conditions: max 1 µM
How it was run: as §1

[20] = compound: CC(=O)c1c(C)c2cnc(Nc3ccc(N4CCNCC4)cn3)nc2n(C2CCCC2)c1=O [Palbociclib]; conditions: max 10 µM
How it was run: as §1

[21] = compound: C1CN(CCC1(C(=O)N[C@@H](CCO)C2=CC=C(C=C2)Cl)N)C3=NC=NC4=C3C=CN4 [Capivasertib]; conditions: max 10 µM
How it was run: as §1

[22] = compound: O=C(c1cc(Cc2n[nH]c(=O)c3ccccc23)ccc1F)N1CCN(C(=O)C2CC2)CC1 [Olaparib]; conditions: max 10 µM
How it was run: as §1

[23] = compound: C[C@@H](Oc1cc(-c2cnn(C3CCNCC3)c2)cnc1N)c1c(Cl)ccc(F)c1Cl [Crizotinib]; conditions: max 10 µM
How it was run: as §1

[24] = compound: COc1nnc2ccc(N3CCC(c4ccc(OCCN5CCN(C)C(=O)[C@H]5C)cc4)CC3)nn12 [AZD5153]; conditions: max 1 µM
How it was run: as §1

[25] = compound: CN(C)CCCOc1ccc(-c2ccc3ncc4c(c3c2)n(C2CCOCC2)c(=O)n4C)cn1 [AZD0156]; conditions: max 3 µM
How it was run: as §1

[26] = compound: Cc1cc2ncnn2cc1Nc1ncc2c(n1)n(C1CCOCC1)c(=O)n2C [AZD7648]; conditions: max 10 µM
How it was run: as §1

[27] = compound: COc1cc(Nc2ncc3c(n2)-c2ccc(Cl)cc2C(c2c(F)cccc2OC)=NC3)ccc1C(=O)O [Alisertib]; conditions: max 10 µM
How it was run: as §1

| Cell Line | IC50, cell viability 72 h [1] | IC50, cell viability 72 h [2] | IC50, cell viability 72 h [3] | IC50, cell viability 72 h [4] | IC50, cell viability 72 h [5] | IC50, cell viability 72 h [6] | IC50, cell viability 72 h [7] | IC50, cell viability 72 h [8] | IC50, cell viability 72 h [9] | IC50, cell viability 72 h [10] | IC50, cell viability 72 h [11] | IC50, cell viability 72 h [12] | IC50, cell viability 72 h [13] | IC50, cell viability 72 h [14] | IC50, cell viability 72 h [15] | IC50, cell viability 72 h [16] | IC50, cell viability 72 h [17] | IC50, cell viability 72 h [18] | IC50, cell viability 72 h [19] | IC50, cell viability 72 h [20] | IC50, cell viability 72 h [21] | IC50, cell viability 72 h [22] | IC50, cell viability 72 h [23] | IC50, cell viability 72 h [24] | IC50, cell viability 72 h [25] | IC50, cell viability 72 h [26] | IC50, cell viability 72 h [27] |
| --- | --- | --- | --- | --- | --- | --- | --- | --- | --- | --- | --- | --- | --- | --- | --- | --- | --- | --- | --- | --- | --- | --- | --- | --- | --- | --- | --- |
| ATN-1 (T-Lymphoblastic Leukemia) | > 1000 nM | > 1000 nM | 5.53 nM | 45.4 nM | 664 nM | 2200 nM | 2.09 nM | > 1000 nM | 60.1 nM | > 1 nM | 109 nM | > 10000 nM | > 300 nM | > 10000 nM | 83 nM | > 10000 nM | 18.8 nM | 1700 nM | 130 nM | 5840 nM | 2020 nM | > 10000 nM | 1410 nM | 482 nM | > 3000 nM | > 10000 nM | 40.1 nM |
| BT-474 (Breast Carcinoma) | > 1000 nM | > 1000 nM | > 300 nM | > 1000 nM | > 10000 nM | > 3000 nM | > 1000 nM | > 1000 nM | > 3000 nM | > 1 nM | > 1000 nM | > 10000 nM | > 300 nM | > 10000 nM | 779 nM | 2540 nM | > 1000 nM | > 2000 nM | > 1000 nM | > 10000 nM | > 10000 nM | > 10000 nM | > 10000 nM | > 1000 nM | > 3000 nM | > 10000 nM | > 10000 nM |
| C2BBe1 (Colorectal Carcinoma) | 818 nM | > 1000 nM | > 300 nM | > 1000 nM | > 10000 nM | > 3000 nM | > 1000 nM | > 1000 nM | 2700 nM | > 1 nM | > 1000 nM | > 10000 nM | > 300 nM | > 10000 nM | 2990 nM | > 10000 nM | > 1000 nM | > 2000 nM | > 1000 nM | > 10000 nM | > 10000 nM | > 10000 nM | > 10000 nM | > 1000 nM | > 3000 nM | > 10000 nM | > 10000 nM |
| DK-MG (Glioblastoma) | 375 nM | > 1000 nM | > 300 nM | > 1000 nM | > 10000 nM | 2850 nM | > 1000 nM | > 1000 nM | 2150 nM | > 1 nM | > 1000 nM | > 10000 nM | > 300 nM | > 10000 nM | > 10000 nM | > 10000 nM | > 1000 nM | > 2000 nM | > 1000 nM | > 10000 nM | > 10000 nM | > 10000 nM | 4990 nM | 803 nM | > 3000 nM | > 10000 nM | > 10000 nM |
| Daudi (Burkitt's Lymphoma) | > 1000 nM | > 1000 nM | 8.52 nM | 173 nM | 3880 nM | > 3000 nM | 29.2 nM | > 1000 nM | 1020 nM | > 1 nM | > 1000 nM | > 10000 nM | > 300 nM | > 10000 nM | 8260 nM | > 10000 nM | > 1000 nM | 627 nM | > 1000 nM | > 10000 nM | > 10000 nM | > 10000 nM | 5560 nM | 243 nM | > 3000 nM | > 10000 nM | 884 nM |
| GRANTA-519 (B-Cell Non-Hodgkin's Lymphoma) | > 1000 nM | > 1000 nM | 4.06 nM | 869 nM | 1950 nM | > 3000 nM | 17.4 nM | > 1000 nM | 550 nM | > 1 nM | > 1000 nM | > 10000 nM | > 300 nM | > 10000 nM | > 10000 nM | > 10000 nM | > 1000 nM | > 2000 nM | – | > 10000 nM | > 10000 nM | > 10000 nM | > 10000 nM | > 1000 nM | > 3000 nM | > 10000 nM | > 10000 nM |
| HT-3 (Cervical Carcinoma) | > 1000 nM | > 1000 nM | 8.56 nM | 732 nM | > 10000 nM | > 3000 nM | > 1000 nM | > 1000 nM | 2340 nM | > 1 nM | > 1000 nM | > 10000 nM | > 300 nM | > 10000 nM | > 10000 nM | > 10000 nM | > 1000 nM | > 2000 nM | > 1000 nM | > 10000 nM | > 10000 nM | > 10000 nM | > 10000 nM | > 1000 nM | > 3000 nM | > 10000 nM | > 10000 nM |
| HT-144 (Melanoma) | 17.9 nM | > 1000 nM | 68.1 nM | > 1000 nM | 3480 nM | > 3000 nM | 139 nM | > 1000 nM | 250 nM | > 1 nM | 221 nM | 632 nM | > 300 nM | > 10000 nM | 5010 nM | 8830 nM | > 1000 nM | > 2000 nM | > 1000 nM | > 10000 nM | 5450 nM | > 10000 nM | 4710 nM | 981 nM | > 3000 nM | > 10000 nM | > 10000 nM |
